# Biological target: T1, human full-length MKNK1 (Homo sapiens, UniProt Q9BUB5, T385D)
# T1 construct: GST (N); purchased Carna Biosciences 02-145; host or cells: insect cells (baculovirus expression system)
# Experiment: MKNK1 kinase high ATP assay (TR-FRET)
# Type: biochemical
# Conditions: high ATP (2 mM final), 15 min preincubation with enzyme, GST-MKNK1 (T344D)
# Procedure: MKNK1-inhibitory activity at high ATP of compounds of the present invention after their preincubation with MKNK1 was quantified employing the TR-FRET-based MKNK1 high ATP assay as described in the following paragraphs.
# A recombinant fusion protein of Glutathione-S-Transferase (GST, N-terminally) and human full-length MKNK1 (amino acids 1-424 and T344D of accession number BAA 19885.1), expressed in insect cells using baculovirus expression system and purified via glutathione sepharose affinity chromatography, was purchased from Carna Biosciences (product no 02-145) and used as enzyme. As substrate for the kinase reaction the biotinylated peptide biotin-Ahx-IKKRKLTRRKSLKG (C-terminus in amide form) was used, which can be purchased e.g. from the company Biosyntan (Berlin-Buch, Germany).
# For the assay 50 nL of a 100fold concentrated solution of the test compound in DMSO was pipetted into a black low volume 384well microtiter plate (Greiner Bio-One, Frickenhausen, Germany), 2 μL of a solution of MKNK1 in aqueous assay buffer [50 mM HEPES pH 7.5, 5 mM MgCl2, 1.0 mM dithiothreitol, 0.005% (v/v) Nonidet-P40 (Sigma)] was added and the mixture was incubated for 15 min at 22° C. to allow pre-binding of the test compounds to the enzyme before the start of the kinase reaction. Then the kinase reaction was started by the addition of 3 μL of a solution of adenosine-tri-phosphate (ATP, 3.3 mM=>final conc. in the 5 μL assay volume is 2 mM) and substrate (0.1 μM=>final conc. in the 5 μL assay volume is 0.06 μM) in assay buffer and the resulting mixture was incubated for a reaction time of 30 min at 22° C. The concentration of MKNK1 was adjusted depending of the activity of the enzyme lot and was chosen appropriate to have the assay in the linear range, typical concentrations were in the range of 0.003 μg/mL. The reaction was stopped by the addition of 5 μL of a solution of TR-FRET detection reagents (5 nM streptavidine-XL665 [Cisbio Bioassays, Codolet, France] and 1 nM anti-ribosomal protein S6 (pSer236)-antibody from Invitrogen [#44921G] and 1 nM LANCE EU-W1024 labeled ProteinG [Perkin-Elmer, product no. AD0071]) in an aqueous EDTA-solution (100 mM EDTA, 0.1% (w/v) bovine serum albumin in 50 mM HEPES pH 7.5).
# The resulting mixture was incubated for 1 h at 22° C. to allow the formation of complex between the phosphorylated biotinylated peptide and the detection reagents. Subsequently the amount of phosphorylated substrate was evaluated by measurement of the resonance energy transfer from the Eu-chelate to the streptavidine-XL. Therefore, the fluorescence emissions at 620 nm and 665 nm after excitation at 350 nm were measured in a TR-FRET reader, e.g. a Rubystar (BMG Labtechnologies, Offenburg, Germany) or a Viewlux (Perkin-Elmer). The ratio of the emissions at 665 nm and at […] was taken as the measure for the amount of phosphorylated substrate. The data were normalised (enzyme reaction without inhibitor=0% inhibition, all other assay components but no enzyme=100% inhibition).
# T1 sequence (Q9BUB5 1-424 isoform Q9BUB5-2 T344D): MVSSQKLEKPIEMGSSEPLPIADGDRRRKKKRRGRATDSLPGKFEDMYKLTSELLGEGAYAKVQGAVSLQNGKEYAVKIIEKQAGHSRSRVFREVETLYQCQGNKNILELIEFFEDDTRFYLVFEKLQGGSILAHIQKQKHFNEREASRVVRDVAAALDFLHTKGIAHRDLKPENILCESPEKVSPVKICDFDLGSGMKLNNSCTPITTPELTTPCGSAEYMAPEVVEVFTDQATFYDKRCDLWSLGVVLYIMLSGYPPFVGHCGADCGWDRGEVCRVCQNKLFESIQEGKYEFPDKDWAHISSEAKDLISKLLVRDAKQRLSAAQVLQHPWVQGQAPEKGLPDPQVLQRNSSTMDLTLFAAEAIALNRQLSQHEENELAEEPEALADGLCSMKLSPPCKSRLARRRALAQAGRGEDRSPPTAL
row,IC50 [nM],SMILES
1,188,"CN1CCC(C(=O)N2CCc3c(sc4ncnc(Nc5ccn6nccc6c5)c34)C2)CC1 [Example 79, (1-Methylpiperidin-4-yl)[4-(pyrazolo[1,5-a]pyridin-5-ylamino)-5,8-dihydropyrido[4′,3′:4,5]thieno[2,3-d]pyrimidin-7(6H)-yl]methanone]"
2,8,"COc1cc2[nH]ncc2cc1Nc1ncnc2sc3c(c12)CCN(CCCn1cccc1)C3 [Example 84, N-(6-Methoxy-1H-indazol-5-yl)-7-[3-(1H-pyrrol-1-yl)propyl]-5,6,7,8-tetrahydropyrido[4′,3′:4,5]thieno[2,3-d]pyrimidin-4-amine]"
3,118,"O=C(N1CCOCC1)N1CCc2c(sc3ncnc(Nc4cnc5[nH]ncc5c4)c23)C1 [Example 44, Morpholin-4-yl[4-(1H-pyrazolo[3,4-b]pyridin-5-ylamino)-5,8-dihydropyrido[4′,3′:4,5]thieno[2,3-d]pyrimidin-7(6H)-yl]methanone]"
4,27,"C[C@@H]1CN(C(=O)N2CCc3c(sc4ncnc(Nc5cnc6[nH]ncc6c5)c34)C2)C[C@H](C)O1 [Example 35, [(2R,6S)-2,6-Dimethylmorpholin-4-yl][4-(1H-pyrazolo[3,4-b]pyridin-5-ylamino)-5,8-dihydropyrido[4′,3′:4,5]thieno[2,3-d]pyrimidin-7(6H)-yl]methanone]"
5,79,"FC(F)(F)CN1CCc2c(sc3ncnc(Nc4cnc5[nH]ncc5c4)c23)C1 [Example 10, N-(1H-Pyrazolo[3,4-b]pyridin-5-yl)-7-(2,2,2-trifluoroethyl)-5,6,7,8-tetrahydropyrido[4′,3′:4,5]thieno[2,3-d]pyrimidin-4-amine]"
6,5,"COc1cc2[nH]ncc2cc1Nc1ncnc2sc3c(c12)CCN(C(=O)c1ccno1)C3 [Example 102, {4-[(6-Methoxy-1H-indazol-5-yl)amino]-5,8-dihydropyrido[4′,3′:4,5]thieno[2,3-d]pyrimidin-7(6H)-yl}(1,2-oxazol-5-yl)methanone]"
7,25,"CN(C)C(=O)N1CCc2c(sc3ncnc(Nc4cc5cn[nH]c5cc4Cl)c23)C1 [Example 27, 4-[(6-Chloro-1H-indazol-5-yl)amino]-N,N-dimethyl-5,8-dihydropyrido[4′,3′:4,5]thieno[2,3-d]pyrimidine-7(6H)-carboxamide]"
8,3,"COc1cc2[nH]ncc2cc1Nc1ncnc2sc3c(c12)CCN(C(=O)N1C[C@@H](C)O[C@H](C)C1)C3 [Example 95, [(2R,6R)-2,6-Dimethylmorpholin-4-yl]{4-[(6-methoxy-1H-indazol-5-yl)amino]-5,8-dihydropyrido[4′,3′:4,5]thieno[2,3-d]pyrimidin-7(6H)-yl}methanone]"
9,4,"COc1cc2[nH]ncc2cc1Nc1ncnc2sc3c(c12)CCN(C(=O)N(C)C)C3 [Example 16, 4-[(6-Methoxy-1H-indazol-5-yl)amino]-N,N-dimethyl-5,8-dihydropyrido[4′,3′:4,5]thieno[2,3-d]pyrimidine-7(6H)-carboxamide]"
10,99,"COc1cc2[nH]ncc2cc1Nc1ncnc2sc3c(c12)CCN(CC(F)(F)F)C3 [Example 12, N-(6-Methoxy-1H-indazol-5-yl)-7-(2,2,2-trifluoroethyl)-5,6,7,8-tetrahydropyrido[4′3′:4,5]thieno[2,3-d]pyrimidin-4-amine]"
11,9,"COc1cc2[nH]ncc2cc1Nc1ncnc2sc3c(c12)CCN(Cc1cc(C(=O)N(C)C)no1)C3 [Example 88, 5-({4-[(6-Methoxy-1H-indazol-5-yl)amino]-5,8-dihydropyrido[4′,3′:4,5]thieno[2,3-d]pyrimidin-7(6H)-yl}methyl)-N,N-dimethyl-1,2-oxazole-3-carboxamide]"
12,4,"CSc1cc2[nH]ncc2cc1Nc1ncnc2sc3c(c12)CCN(C(=O)C1CCN(C)CC1)C3 [Example 74, (1-Methylpiperidin-4-yl)[4-{[6-(methylsulfanyl)-1H-indazol-5-yl]amino}-5,8-dihydropyrido[4′,3′:4,5]thieno[2,3-d]pyrimidin-7(6H)-yl]methanone]"
13,11,"COc1cc2[nH]ncc2cc1Nc1ncnc2sc3c(c12)CCN(Cc1ccn(C)n1)C3 [Example 98, N-(6-Methoxy-1H-indazol-5-yl)-7-[(1-methyl-1H-pyrazol-3-yl)methyl]-5,6,7,8-tetrahydropyrido[4′,3′:4,5]thieno[2,3-d]pyrimidin-4-amine]"
14,316,"CS(=O)(=O)N1CCc2c(sc3ncnc(Nc4ccc5[nH]c(=O)sc5c4)c23)C1 [Example 39, 6-{[7-(Methylsulfonyl)-5,6,7,8-tetrahydropyrido[4′,3′:4,5]thieno[2,3-d]pyrimidin-4-yl]amino}-1,3-benzothiazol-2(3H)-one]"
15,48,"CN(C)C(=O)N1CCc2c(sc3ncnc(Nc4cnc5[nH]ncc5c4)c23)C1 [Example 13, N,N-Dimethyl-4-(1H-pyrazolo[3,4-b]pyridin-5-ylamino)-5,8-dihydropyrido[4′,3′:4,5]thieno[2,3-d]pyrimidine-7(6H)-carboxamide]"
16,216,"O=C(N1CCOCC1)N1CCc2c(sc3ncnc(Nc4ccc5[nH]c(=O)sc5c4)c23)C1 [Example 41, 6-{[7-(Morpholin-4-ylcarbonyl)-5,6,7,8-tetrahydropyrido[4′,3′:4,5]thieno[2,3-d]pyrimidin-4-yl]amino}-1,3-benzothiazol-2(3H)-one]"
17,236,"O=c1[nH]c2ccc(Nc3ncnc4sc5c(c34)CCN(CCN3CCOCC3)C5)cc2s1 [Example 63, 6-({7-[2-(Morpholin-4-yl)ethyl]-5,6,7,8-tetrahydropyrido[4′,3′:4,5]thieno[2,3-d]pyrimidin-4-yl}amino)-1,3-benzothiazol-2(3H)-one]"
18,16,"CN1CCC(C(=O)N2CCc3c(sc4ncnc(Nc5ccc6[nH]ncc6c5)c34)C2)CC1 [Example 69, [4-(1H-Indazol-5-ylamino)-5,8-dihydropyrido[4′,3′:4,5]thieno[2,3-d]pyrimidin-7(6H)-yl](1-methylpiperidin-4-yl)methanone]"
19,53,"CN1CCC(C(=O)N2CCc3c(sc4ncnc(Nc5cnc6[nH]ncc6c5)c34)C2)CC1 [Example 67, (1-Methylpiperidin-4-yl)[4-(1H-pyrazolo[3,4-b]pyridin-5-ylamino)-5,8-dihydropyrido[4′,3′:4,5]thieno[2,3-d]pyrimidin-7(6H)-yl]methanone]"
20,3,"COc1cc2[nH]ncc2cc1Nc1ncnc2sc3c(c12)CCN(C(=O)N1CCOC[C@@H]1C)C3 [Example 97, {4-[(6-Methoxy-1H-indazol-5-yl)amino]-5,8-dihydropyrido[4′,3′:4,5]thieno[2,3-d]pyrimidin-7(6H)-yl}[(3S)-3-methylmorpholin-4-yl]methanone]"
21,3,"COc1cc2[nH]ncc2cc1Nc1ncnc2sc3c(c12)CCN(C(=O)C1CCCCC1)C3 [Example 92, Cyclohexyl{4-[(6-methoxy-1H-indazol-5-yl)amino]-5,8-dihydropyrido[4′,3′:4,5]thieno[2,3-d]pyrimidin-7(6H)-yl}methanone]"
22,5,"COc1nc2[nH]ncc2cc1Nc1ncnc2sc3c(c12)CCN(C(=O)OC(C)(C)C)C3 [Example 59, tert-Butyl 4-[(6-methoxy-1H-pyrazolo[3,4-b]pyridin-5-yl)amino]-5,8-dihydropyrido[4′,3′:4,5]thieno[2,3-d]pyrimidine-7(6H)-carboxylate]"
23,19,"COc1cc2[nH]ncc2cc1Nc1ncnc2sc3c(c12)CCN(CCC(=O)N(C)C)C3 [Example 71, 3-{4-[(6-Methoxy-1H-indazol-5-yl)amino]-5,8-dihydropyrido[4′,3′:4,5]thieno[2,3-d]pyrimidin-7(6H)-yl}-N,N-dimethylpropanamide]"
24,48,"COc1cc2[nH]ncc2cc1NCCN(C)C(=O)N1CCc2c(sc3ncnc(Nc4cc5cn[nH]c5cc4OC)c23)C1 [Example 82, 4-[(6-Methoxy-1H-indazol-5-yl)amino]-N-{2-[(6-methoxy-1H-indazol-5-yl)amino]ethyl}-N-methyl-5,8-dihydropyrido[4′,3′:4,5]thieno[2,3-d]pyrimidine-7(6H)-carboxamide]"
